Source: US10358448B2, “Therapeutic compounds for pain and synthesis thereof” (priority 2015, dated 2019)
Where “and” joins values, the source holds several entries; their conditions need not be identical. Equal entries are not always repeated.

Key:
[1] = test system: CCl model of neuropathic pain; assay: CCl animal model for neuropathic pain in mice; format: in vivo; details: SC, 150 mg/kg, repeated daily administration
Text: (§1) Table 7 summarizes the activity of Formula 1 in mice models of neuropathic pain following repeated daily administration using different routes of administration.

[2] = test system: Taxol model of neuropathic pain; assay: Taxol animal model for neuropathic pain in mice; format: in vivo
Text: as §1

[3] = PO, 30 mg/kg, repeated daily administration
[4] = SC, doses tested 1, 3, 10 mg/kg, repeated daily administration

Compound | Duration of activity at maximum effect [1] | Level of activity (% of maximum effect-baseline) [1] | Peak of activity (T) [1] | Duration of activity at maximum effect [2, 3] | Level of activity (% of maximum effect-baseline) [2, 3] | Peak of activity (T) [2, 3] | Dose of maximum activity ([2]; PO, dose tested 30 mg/kg) | Dose of maximum activity ([2]; SC, doses tested 1, 3, 10 mg/kg) | Duration of activity at maximum effect [2, 4] | Level of activity (% of maximum effect-baseline) [2, 4]
NCC1(CC(=O)O)CCCCC1 [Gabapentin] | 4-6 H | >100% and 64% | 2-3 H |  |  |  |  |  |  | 
CC(C)(C)C(=O)O[C@@H]1C2[C@H]3C[C@H](C[C@@H]1N3CC1CC1)CN2C(=O)CC(F)(F)F (stereo partly drawn) [Formula 1, (2S,3S,6R,7aR)-1-(cyclopropylmethyl)-4-(3,3,3-trifluoropropanoyl)octahydro-1H-2,6-methanopyrrolo[3,2-b]pyridin-3-yl pivalate] |  |  |  | 3 days | 100% | 1-24 H | <30 mg/kg | 1 mg/kg | 3 days | 100%
